In patent US20250320193A1, “OXOISOINDOLINYL SUBSTITUTED PIPERIDINEDIONE DERIVATIVE AND USE THEREOF” (GLUETACS THERAPEUTICS (SHANGHAI) CO., LTD., priority 2022, published 2025):

What was measured:
IKZF1 = IKZF1 (Homo sapiens (Human), UniProt Q13422+Q96SW2); assay: Western blot, substrate protein expression in hPBMC: IKZF1; format: cell-based; settings: hPBMC, compound 500 nM, 24 hours, Western blot
In short: (§1)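 hPBMC, 1×10^6 cells/mL, 24 h compound exposure; RIPA lysis, BCA protein assay, SDS-PAGE, NC membrane immunoblot. Densitometry vs internal control → % protein remaining; degradation % = 100% − remaining; DC50 = conc. at 50% of DMSO band signal.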

IKZF3 = IKZF3 (Homo sapiens (Human), UniProt Q96SW2+Q9UKT9); assay: Western blot, substrate protein expression in hPBMC: IKZF3; format: cell-based; settings: hPBMC, compound 500 nM, 24 hours, Western blot
In short: as §1

GSPT1 = GSPT1 (Homo sapiens (Human), UniProt P15170+Q96SW2); assay: Western blot, substrate protein expression in hPBMC: GSPT1; format: cell-based; settings: for substrate protein remaining % GSPT1: hPBMC, compound 500 nM, 24 hours, Western blot
In short: as §1

[1] = molecular target: human Cereblon WT GST-tagged protein (Homo sapiens (Human), UniProt Q96SW2); assay: CRBN-binding affinity, HTRF (CEREBLON BINDING kit, CISBIO); settings: HTRF inhibitory activity
In short: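 HTRF competition format: test compound displaces Thalidomide-Red from GST-tagged human Cereblon WT, detected with a Eu-labelled anti-GST antibody. Percent CRBN binding inhibition was derived from the 620 nm signal, normalized to solvent-control and protein-free blank wells.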

IKZF3, sequence (Q9UKT9 whole entry): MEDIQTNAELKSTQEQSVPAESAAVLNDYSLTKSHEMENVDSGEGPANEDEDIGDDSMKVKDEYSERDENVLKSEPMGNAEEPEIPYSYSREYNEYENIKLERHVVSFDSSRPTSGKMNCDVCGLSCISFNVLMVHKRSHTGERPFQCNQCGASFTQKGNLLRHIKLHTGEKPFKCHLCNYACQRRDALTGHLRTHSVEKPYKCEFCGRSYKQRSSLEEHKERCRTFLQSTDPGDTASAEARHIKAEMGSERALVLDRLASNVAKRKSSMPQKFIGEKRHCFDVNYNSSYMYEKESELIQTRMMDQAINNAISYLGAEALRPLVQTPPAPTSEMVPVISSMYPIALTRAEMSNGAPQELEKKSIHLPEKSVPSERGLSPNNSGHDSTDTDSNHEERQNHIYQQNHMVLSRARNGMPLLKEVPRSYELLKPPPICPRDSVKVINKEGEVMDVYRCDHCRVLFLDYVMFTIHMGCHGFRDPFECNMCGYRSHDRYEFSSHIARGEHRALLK
IKZF3, sequence (Q96SW2 whole entry): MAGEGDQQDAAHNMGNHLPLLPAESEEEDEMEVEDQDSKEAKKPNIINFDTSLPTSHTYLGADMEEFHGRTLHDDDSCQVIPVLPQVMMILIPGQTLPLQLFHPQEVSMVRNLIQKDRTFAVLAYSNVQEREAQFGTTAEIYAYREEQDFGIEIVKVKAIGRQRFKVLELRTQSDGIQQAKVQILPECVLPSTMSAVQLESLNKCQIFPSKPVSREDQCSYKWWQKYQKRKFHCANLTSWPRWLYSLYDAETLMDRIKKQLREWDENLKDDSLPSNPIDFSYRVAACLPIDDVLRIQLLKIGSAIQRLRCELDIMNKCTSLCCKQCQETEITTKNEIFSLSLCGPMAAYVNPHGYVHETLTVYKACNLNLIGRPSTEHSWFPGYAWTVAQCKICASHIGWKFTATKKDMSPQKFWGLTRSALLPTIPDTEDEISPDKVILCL
IKZF3, sequence (Q16531 whole entry partner): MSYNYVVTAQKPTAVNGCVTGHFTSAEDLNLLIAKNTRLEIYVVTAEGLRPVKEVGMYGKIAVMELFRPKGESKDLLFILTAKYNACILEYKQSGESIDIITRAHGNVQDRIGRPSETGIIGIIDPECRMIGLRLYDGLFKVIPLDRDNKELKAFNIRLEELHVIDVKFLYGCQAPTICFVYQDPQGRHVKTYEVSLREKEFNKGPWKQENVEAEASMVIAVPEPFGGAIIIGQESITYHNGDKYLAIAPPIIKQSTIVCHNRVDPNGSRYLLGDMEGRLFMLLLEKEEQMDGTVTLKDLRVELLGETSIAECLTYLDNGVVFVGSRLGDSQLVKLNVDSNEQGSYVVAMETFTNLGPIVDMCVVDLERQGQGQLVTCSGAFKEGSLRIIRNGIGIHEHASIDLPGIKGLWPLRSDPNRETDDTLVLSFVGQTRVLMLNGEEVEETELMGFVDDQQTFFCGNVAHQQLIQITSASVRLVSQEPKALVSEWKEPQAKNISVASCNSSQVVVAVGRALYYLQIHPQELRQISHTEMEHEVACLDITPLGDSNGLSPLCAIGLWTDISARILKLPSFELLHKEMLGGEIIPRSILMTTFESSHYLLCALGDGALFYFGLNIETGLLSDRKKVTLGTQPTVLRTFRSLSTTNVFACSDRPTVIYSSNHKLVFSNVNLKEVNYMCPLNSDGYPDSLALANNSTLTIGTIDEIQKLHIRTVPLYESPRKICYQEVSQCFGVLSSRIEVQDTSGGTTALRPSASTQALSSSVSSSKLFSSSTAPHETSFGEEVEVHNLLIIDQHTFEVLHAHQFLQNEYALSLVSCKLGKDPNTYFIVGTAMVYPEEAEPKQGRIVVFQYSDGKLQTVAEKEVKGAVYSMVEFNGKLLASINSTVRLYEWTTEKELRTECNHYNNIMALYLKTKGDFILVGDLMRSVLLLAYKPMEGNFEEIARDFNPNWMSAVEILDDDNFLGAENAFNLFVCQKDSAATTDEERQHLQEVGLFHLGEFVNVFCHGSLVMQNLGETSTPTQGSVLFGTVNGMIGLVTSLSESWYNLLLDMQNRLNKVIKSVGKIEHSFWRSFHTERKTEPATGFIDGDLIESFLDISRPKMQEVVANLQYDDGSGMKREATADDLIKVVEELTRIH
GSPT1, sequence (P15170 whole entry): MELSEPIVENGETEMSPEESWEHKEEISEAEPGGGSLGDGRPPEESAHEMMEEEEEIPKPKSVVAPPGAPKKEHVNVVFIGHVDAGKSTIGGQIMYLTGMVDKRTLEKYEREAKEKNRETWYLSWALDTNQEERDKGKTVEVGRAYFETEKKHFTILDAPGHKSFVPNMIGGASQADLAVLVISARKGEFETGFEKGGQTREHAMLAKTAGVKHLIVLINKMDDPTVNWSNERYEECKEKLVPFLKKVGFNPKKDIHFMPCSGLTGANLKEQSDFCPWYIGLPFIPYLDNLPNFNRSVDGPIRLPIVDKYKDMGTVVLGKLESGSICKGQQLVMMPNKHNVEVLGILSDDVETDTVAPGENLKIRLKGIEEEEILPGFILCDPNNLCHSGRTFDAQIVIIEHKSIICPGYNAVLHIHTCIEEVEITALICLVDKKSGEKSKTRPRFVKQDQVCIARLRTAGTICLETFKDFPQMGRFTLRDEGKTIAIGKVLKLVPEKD
GSPT1, sequence (Q96SW2 whole entry): as the sequence (Q96SW2 whole entry) above
GSPT1, sequence (Q16531 whole entry partner): as the sequence (Q16531 whole entry partner) above
human Cereblon WT GST-tagged protein, sequence (Q96SW2 whole entry): as the sequence (Q96SW2 whole entry) above
IKZF1, sequence (Q13422 whole entry): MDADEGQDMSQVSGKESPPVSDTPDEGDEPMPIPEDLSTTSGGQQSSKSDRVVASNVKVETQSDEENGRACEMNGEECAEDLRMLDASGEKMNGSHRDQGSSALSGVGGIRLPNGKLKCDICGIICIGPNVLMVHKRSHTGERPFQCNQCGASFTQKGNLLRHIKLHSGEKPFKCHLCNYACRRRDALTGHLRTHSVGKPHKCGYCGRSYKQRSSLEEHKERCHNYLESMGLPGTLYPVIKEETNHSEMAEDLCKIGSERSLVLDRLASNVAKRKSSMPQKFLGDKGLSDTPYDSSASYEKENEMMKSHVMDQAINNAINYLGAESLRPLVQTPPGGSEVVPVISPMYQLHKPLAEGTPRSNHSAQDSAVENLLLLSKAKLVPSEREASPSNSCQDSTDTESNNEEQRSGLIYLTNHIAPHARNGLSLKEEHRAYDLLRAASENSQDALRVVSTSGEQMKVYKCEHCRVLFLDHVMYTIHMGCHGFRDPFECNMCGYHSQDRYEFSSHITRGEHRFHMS
IKZF1, sequence (Q96SW2 whole entry): as the sequence (Q96SW2 whole entry) above
IKZF1, sequence (Q16531 whole entry partner): as the sequence (Q16531 whole entry partner) above

SMILES | IC50 [1] [nM] | substrate protein remaining % IKZF1 (IKZF1) | substrate protein remaining % IKZF3 (IKZF3) | substrate protein remaining % GSPT1 (GSPT1) | concentration at which GSPT1 protein was clearly/significantly degraded (Western blot, FIG. 1) (GSPT1; hPBMCs)
O=C1CCC(N2Cc3cc(CN4C5CC4CN(C(c4ccccc4)c4ccccc4)C5)c(F)cc3C2=O)C(=O)N1 (stereo not drawn) [GT-05737, 3-(5-((3-benzhydryl-3,6-diazabicyclo[3.1.1]heptan-6-yl)methyl)-6-fluoro-1-oxoisoindolin-2-yl)piperidine-2,6-dione] | 500 to 1000 | B (B represents substrate protein remaining % > 50%) | B (B represents substrate protein remaining % > 50%) | A (A represents 0% ≤ substrate protein remaining % ≤ 50%) | –
O=C1CCC(N2Cc3cc(CN4CCCN(C(c5ccccc5)c5ccccc5)CC4)c(F)cc3C2=O)C(=O)N1 (stereo not drawn) [GT-05738, 3-(5-((4-benzhydryl-1,4-diazepan-1-yl)methyl)-6-fluoro-1-oxoisoindolin-2-yl)piperidine-2,6-dione] | 1000 to 1900 | B (B represents substrate protein remaining % > 50%) | B (B represents substrate protein remaining % > 50%) | A (A represents 0% ≤ substrate protein remaining % ≤ 50%) | –
O=C1CCC(N2Cc3cc(C(=O)N4CCN(C(c5ccccc5)c5ccccc5)CC4)cc(F)c3C2=O)C(=O)N1 (stereo not drawn) [GT-05850, 3-(5-(4-benzhydrylpiperazine-1-carbonyl)-7-fluoro-1-oxoisoindolin-2-yl)piperidine-2,6-dione] | 1000 to 1900 | A (A represents 0% ≤ substrate protein remaining % ≤ 50%) | B (B represents substrate protein remaining % > 50%) | A (A represents 0% ≤ substrate protein remaining % ≤ 50%) | –
O=C1CCC(N2Cc3cc(C(=O)N4CCN(C(c5ccccc5)c5ccccn5)CC4)ccc3C2=O)C(=O)N1 (stereo not drawn) [GT-05854, 3-(1-oxo-5-(4-(phenyl(pyridin-2-yl)methyl)piperazine-1-carbonyl)isoindolin-2-yl)piperidine-2,6-dione] | 1000 to 1900 | B (B represents substrate protein remaining % > 50%) | B (B represents substrate protein remaining % > 50%) | A (A represents 0% ≤ substrate protein remaining % ≤ 50%) | –
O=C1CCC(N2Cc3cc(CN4CCC(N(c5ccccc5)c5ccccn5)CC4)cc(F)c3C2=O)C(=O)N1 (stereo not drawn) [GT-05858, 3-(7-fluoro-1-oxo-5-((4-(phenyl(pyridin-2-yl)amino)piperidin-1-yl)methyl)isoindolin-2-yl)piperidine-2,6-dione] | 500 to 1000 | B (B represents substrate protein remaining % > 50%) | B (B represents substrate protein remaining % > 50%) | A (A represents 0% ≤ substrate protein remaining % ≤ 50%) | below 50 nM
O=C1CCC(N2Cc3cc(C(=O)N4CCN(C(c5ccccc5)c5ccccn5)CC4)cc(F)c3C2=O)C(=O)N1 (stereo not drawn) [GT-05877, 3-(7-fluoro-1-oxo-5-(4-(phenyl(pyridin-2-yl)methyl)piperazine-1-carbonyl)isoindolin-2-yl)piperidine-2,6-dione] | 1000 to 1900 | B (B represents substrate protein remaining % > 50%) | B (B represents substrate protein remaining % > 50%) | A (A represents 0% ≤ substrate protein remaining % ≤ 50%) | –
O=C1CCC(N2Cc3cc(C(=O)N4CCN(C(c5ccc(Cl)cc5)c5ccc(Cl)cc5)CC4)ccc3C2=O)C(=O)N1 (stereo not drawn) [GT-05886, 3-(5-(4-(bis(4-chlorophenyl)methyl)piperazine-1-carbonyl)-1-oxoisoindolin-2-yl)piperidine-2,6-dione] | 1000 to 1900 | B (B represents substrate protein remaining % > 50%) | A (A represents 0% ≤ substrate protein remaining % ≤ 50%) | A (A represents 0% ≤ substrate protein remaining % ≤ 50%) | –
CC1CN(C(c2ccccc2)c2ccccc2)CC(C)N1C(=O)c1ccc2c(c1)C(=O)N(C1CCC(=O)NC1=O)C2=O (stereo not drawn) [GT-05922, 5-(4-benzhydryl-2,6-dimethylpiperazine-1-carbonyl)-2-(2,6-dioxopiperidin-3-yl) isoindoline-1,3-dione] | 1000 to 1900 | B (B represents substrate protein remaining % > 50%) | B (B represents substrate protein remaining % > 50%) | A (A represents 0% ≤ substrate protein remaining % ≤ 50%) | –

The next lines start with results.

IC50 [1] [nM] | SMILES | substrate protein remaining % IKZF1 (IKZF1) | substrate protein remaining % IKZF3 (IKZF3) | substrate protein remaining % GSPT1 (GSPT1) | concentration at which GSPT1 protein was clearly/significantly degraded (Western blot, FIG. 1) (GSPT1; hPBMCs)
< 500 | O=C1CCC(N2Cc3cc(CC4CCN(C(c5ccccc5)c5ccccc5)CC4)ccc3C2=O)C(=O)N1 (stereo not drawn) [GT-05744, 3-(5-((1-benzhydrylpiperidin-4-yl)methyl)-1-oxoisoindolin-2-yl)piperidine-2,6-dione] | B (B represents substrate protein remaining % > 50%) | B (B represents substrate protein remaining % > 50%) | A (A represents 0% ≤ substrate protein remaining % ≤ 50%) | –
< 500 | O=C1CCC(N2Cc3cc(CC4CN(C(c5ccccc5)c5ccccc5)C4)ccc3C2=O)C(=O)N1 (stereo not drawn) [GT-05859, 3-(5-((1-benzhydrylazetidin-3-yl)methyl)-1-oxoisoindolin-2-yl)piperidine-2,6-dione] | A (A represents 0% ≤ substrate protein remaining % ≤ 50%) | B (B represents substrate protein remaining % > 50%) | A (A represents 0% ≤ substrate protein remaining % ≤ 50%) | –
500 to 1000 | O=C1CCC(N2Cc3cc(C4CCN(C(c5ccccc5)c5ccccc5)CC4)ccc3C2=O)C(=O)N1 (stereo not drawn) [GT-05868, 3-(5-(1-benzhydrylpiperidin-4-yl)-1-oxoisoindolin-2-yl)piperidine-2,6-dione] | A (A represents 0% ≤ substrate protein remaining % ≤ 50%) | A (A represents 0% ≤ substrate protein remaining % ≤ 50%) | A (A represents 0% ≤ substrate protein remaining % ≤ 50%) | –
500 to 1000 | O=C1CCC(N2Cc3cc(C(=O)N4CCN(C(c5ccc(F)cc5)c5ccc(F)cc5)CC4)ccc3C2=O)C(=O)N1 (stereo not drawn) [GT-05881, 3-(5-(4-(bis(4-fluorophenyl)methyl)piperazine-1-carbonyl)-1-oxoisoindolin-2-yl)piperidine-2,6-dione] | B (B represents substrate protein remaining % > 50%) | B (B represents substrate protein remaining % > 50%) | A (A represents 0% ≤ substrate protein remaining % ≤ 50%) | –
500 to 1000 | O=C1CCC(N2Cc3cc(C(=O)N4CCN(C(c5ccc(F)cc5)c5ccc(F)cc5)CC4)cc(F)c3C2=O)C(=O)N1 (stereo not drawn) [GT-05882, 3-(5-(4-(bis(4-fluorophenyl)methyl)piperazine-1-carbonyl)-7-fluoro-1-oxoisoindolin-2-yl)piperidine-2,6-dione] | B (B represents substrate protein remaining % > 50%) | B (B represents substrate protein remaining % > 50%) | A (A represents 0% ≤ substrate protein remaining % ≤ 50%) | –
500 to 1000 | O=C1CCC(N2Cc3c(CN4CC5(CCN(C(c6ccccc6)c6ccccc6)CC5)C4)cccc3C2=O)C(=O)N1 (stereo not drawn) [GT-05905, 3-(4-((7-benzhydryl-2,7-diazaspiro[3.5]nonan-2-yl)methyl)-1-oxoisoindolin-2-yl)piperidine-2,6-dione] | B (B represents substrate protein remaining % > 50%) | B (B represents substrate protein remaining % > 50%) | A (A represents 0% ≤ substrate protein remaining % ≤ 50%) | –
< 500 | CC1CN(C(c2ccccc2)c2ccccc2)CC(C)N1C(=O)c1ccc2c(c1)CN(C1CCC(=O)NC1=O)C2=O (stereo not drawn) [GT-05920, 3-(5-(4-benzhydryl-2,6-dimethylpiperazine-1-carbonyl)-1-oxoisoindolin-2-yl)piperidine-2,6-dione] | B (B represents substrate protein remaining % > 50%) | B (B represents substrate protein remaining % > 50%) | A (A represents 0% ≤ substrate protein remaining % ≤ 50%) | –
< 500 | O=C1CCC(N2Cc3cc(C(=O)N4CCC(N(c5ccccc5)c5ccccn5)CC4)ccc3C2=O)C(=O)N1 (stereo not drawn) [GT-05923, 3-(1-oxo-5-(4-(phenyl(pyridin-2-yl)amino)piperidine-1-carbonyl)isoindolin-2-yl)piperidine-2,6-dione] | B (B represents substrate protein remaining % > 50%) | B (B represents substrate protein remaining % > 50%) | A (A represents 0% ≤ substrate protein remaining % ≤ 50%) | –
500 to 1000 | O=C1CCC(N2Cc3cc(C(=O)N4CCC(N(c5ccccc5)c5ccccn5)CC4)cc(F)c3C2=O)C(=O)N1 (stereo not drawn) [GT-05924, 3-(7-fluoro-1-oxo-5-(4-(phenyl(pyridin-2-yl)amino)piperidine-1-carbonyl)isoindolin-2-yl)piperidine-2,6-dione] | B (B represents substrate protein remaining % > 50%) | B (B represents substrate protein remaining % > 50%) | A (A represents 0% ≤ substrate protein remaining % ≤ 50%) | –
